Earlier results in doi:10.1101/435081v1 (bioRxiv, 2018).

System: Lb. sakei NCDO2714
Details: single peptide alone

| Substance | Growth inhibition when alone |
| --- | --- |
| acidocin LF221A [Acd221A] | inhibited the growth |
| acidocin LF221B [Acd221B] | inhibited the growth |
